{
  "source": "BindingDB's records for patent US20240092770",
  "about": "(Recursion Pharmaceuticals, 2024)",
  "target": "T1, RNA-binding protein 39 [150-331]/DDB1- and CUL4-associated factor 15 (Homo sapiens, UniProt Q14498+Q66K64)",
  "T1 construct": "150-331",
  "T1 sequence (Q66K64 whole entry)": "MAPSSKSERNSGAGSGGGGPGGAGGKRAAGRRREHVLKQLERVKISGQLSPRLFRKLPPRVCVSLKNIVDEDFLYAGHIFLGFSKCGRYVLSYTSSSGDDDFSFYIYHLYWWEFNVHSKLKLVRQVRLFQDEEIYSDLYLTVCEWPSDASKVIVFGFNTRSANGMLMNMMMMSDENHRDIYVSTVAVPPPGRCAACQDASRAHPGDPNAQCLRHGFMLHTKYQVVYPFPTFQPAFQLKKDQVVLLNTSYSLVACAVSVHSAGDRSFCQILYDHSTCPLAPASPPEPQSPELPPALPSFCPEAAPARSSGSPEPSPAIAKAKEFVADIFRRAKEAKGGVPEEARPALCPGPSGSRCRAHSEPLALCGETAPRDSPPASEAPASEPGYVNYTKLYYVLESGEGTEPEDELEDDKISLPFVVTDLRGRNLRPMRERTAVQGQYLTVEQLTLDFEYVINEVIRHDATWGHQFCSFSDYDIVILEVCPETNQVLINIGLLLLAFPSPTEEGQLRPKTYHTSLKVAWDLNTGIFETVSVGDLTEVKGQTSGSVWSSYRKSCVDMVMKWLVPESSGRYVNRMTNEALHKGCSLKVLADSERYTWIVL",
  "T1 sequence (Q14498 150-331)": "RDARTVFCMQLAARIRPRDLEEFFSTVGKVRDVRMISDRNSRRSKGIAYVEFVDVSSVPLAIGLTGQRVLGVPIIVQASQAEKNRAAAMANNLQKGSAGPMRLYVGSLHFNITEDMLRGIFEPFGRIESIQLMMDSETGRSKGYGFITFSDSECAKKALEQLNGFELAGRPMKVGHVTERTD",
  "assay": "TR-FRET Assay",
  "protocol": "A TR-FRET assay was used to assess the effect of compounds disclosed herein on the interaction between RBM39 and the DCAF15 complex. Test compounds were dissolved to form a 10 mM DMSO stock solution. A 45 μL aliquot of the stock solution was transferred to a 384 pp-plate, and a threefold, 8-point dilution was performed via transferring 15 μL compound solution into 30 μL of DMSO. The plates were then spun at room temperature at 1,000 RPM for 1 minute. A 30 nL aliquot of the diluted compound was transferred to a 384 well plate, which was incubated at room temperature for 15 minutes. Next, Solutions 1, 2, and 3 were prepared as described in the below tables. A 5 μL aliquot of Solution 2 was added to each well, followed by 5 μL of Solution 3 to start the reaction. The final volume of each well was 10 μL. The plates were incubated at room temperature for 60 minutes, and then read.",
  "data": [
    {"smiles": "Cc1ccc(NS(=O)(=O)c2ncc(C(F)(F)F)s2)c2[nH]cc(C#N)c12", "note": "[US20240092770, Compound 25]", "values": [
      {"measurement": "EC50", "value": 1090, "unit": "nM"}
    ]}
  ]
}
